Assay results: US3951979A, “New amino propanediol derivatives” (priority 1972, dated 1976)
Where two headings read alike, the source gives them in different places.

How the values were obtained:
[1] = system: carotid arterial blood-pressure; assay: Effect on carotid arterial blood-pressure of the dog anaesthetised with chloralose; assay type: in vivo; details: for Hypotensive effect (in words): in vivo
Description: EFFECT ON ARTERIAL BLOOD-PRESSURE This was measured on the dog anaesthetised with chloralose by recording both the extent of, and the duration of, the effect on carotid arterial blood-pressure.

apomorphine = assay: Anti-apomorphic effect in the rat; assay type: in vivo; parameters: Anti-apomorphine: unit not given here; details: for Anti-apomorphine: apomorphine 0.6 mg/kg; for Activity in apomorphine stereotypes (in words): in vivo
[2] = system: mebubarbital-induced sleep; assay: Potentiation of an inactive dose of a barbiturate (mebubarbital); assay type: in vivo; details: for ED50: 0.25 h, read-out: Barbiturates (potentiation), ED50
rat = assay: Cataleptic effect, homolateral crossed paws method; assay type: in vivo; parameters: Catalepsy: unit not given here; details: for Catalepsy / Catalepsy, result at stated dose: I.P.; for Cataleptic effect (in words): in vivo
[3] = Acute toxicity, LD50, oral administration; details: in vivo, mouse
Description: 1. Acute toxicity -- LD50 -- Oral administration
This was determined upon the mouse by oral administration, the LD50 value being calculated by the method of B. Behrens & C. Karber (Arch F. Exp. Patho. Pharm., volume 177, page 379 (1935) )

cerebral dopamine = assay: Biochemical dopamine effect on the brain (spectrofluorometric); assay type: in vivo, mouse (strain OF1); details: mouse; for Cerebral dopamine / Cerebral dopamine (result in words): I.P.; for Cerebral dopamine (result in words): dose not given
Description: 7. Biochemical dopamine effect on the brain This effect is measured by spectrofluorometric means using the Jobin-Yvon Bearn apparatus, on the brains of mice of the strain OF1.

central nervous system = assay: Effect on the central nervous system, overall psycholeptic/neuroleptic spectrum; details: in vivo
Excerpt: EFFECT ON THE CENTRAL NERVOUS SYSTEM
This effect was observed by means of a set of tests of which the most significant are summarised below: […]

[4] = system: apomorphine-induced vomiting; assay: Anti-emetic effect: apomorphine-induced attempted vomits in beagle dogs; assay type: in vivo; details: dog
Description: The anti-emetic effect, which may constitute a contributory factor to the main effect, was also systematically tested in accordance with the following procedure:
Dogs of the beagle breed were split up at random into groups of 3 animals. After fasting for 24 hours, the animals were given an empty capsule then, one hour later, received a sub-cutaneous injection of apomorphine hydrochloride (0.3 mg/kg). The number of attempted vomits during 45 minutes was then counted.
After 15 days rest, the same animals were given a capsule identical to that given on the first occasion but containing the product to be tested. The injection of apomorphine was carried out under the same conditions as for the control experiment.

coughing spasms = assay: Antitussive effect: inhibition of coughing spasms induced by stimulating a laryngeal nerve; assay type: in vivo, cat; details: for Activity of the product (antitussive) / Duration of activity (antitussive): cat; for Dose of pentoxyverine necessary for comparable antitussive effect, relative to compound: versus pentoxyverine
Excerpt: Finally, the compounds of the invention having shown themselves to be powerful antitussive agents, the results of comparative tests for this activity on four compounds of the invention and on pentoxyverine, one of the most powerful antitussive agents at present known, are given below in Table V.
The technique used was the method of R. Domenjoz, Arch. Exp. Pathol. V. Pharmacol. Volume 215, page 19 (1952)
The cat is anaesthetized with ether and tracheotomised.
Coughing spasms are induced by stimulating a laryngeal nerve. After the product to be tested has been administered, fresh stimulation enables the inhibition achieved and its duration to be assessed.

[5] = Canis lupus familiaris, 1.25 mg/kg intravenous
[6] = oral administration, sleep in 50% of animals 15 minutes after product

Compound: C#CC(C)(C)OCC(O)CN1CCN(c2ccccc2)CC1 (stereo not shown) [Compound No. 1]
- Duration of activity (blood-pressure) ([1]; 1.25 mg/kg intravenous): ≥ 35 min
- change in vivo at 1.25 mg/kg [1, 5]: -20.3%

Compound: C#CC1(OCC(O)CN2CCN(c3ccccc3)CC2)CCCCC1 (stereo not shown) [Compound No. 2]
- Anti-apomorphine (apomorphine; subcutaneous): 50
- ED50 [2, 6]: 100 mg/kg
- Catalepsy (rat): 50
- LD50 [3]: > 600 mg/kg
- Cerebral dopamine (cerebral dopamine; at 40 mg/kg): -33%

Compound: C#CC(C)(CC)OCC(O)CN1CCN(c2ccccc2)CC1 (stereo not shown) [Compound No. 3]
- Neuroleptic/psycholeptic activity (in words) (central nervous system): only slightly neuroleptic
- ED50 [2, 6]: > 100 mg/kg
- Catalepsy, result at stated dose (rat; at 40): Inactive
- LD50 [3]: > 600 mg/kg
- Duration of activity (blood-pressure) ([1]; 1.25 mg/kg intravenous): 35 min
- change in vivo at 1.25 mg/kg [1, 5]: -21.5%
- Hypotensive effect (in words) [1]: markedly hypotensive
- Cerebral dopamine (cerebral dopamine; at 60 mg/kg): -45%

Compound: C#CC1(OCC(O)CN2CCN(c3ccc(F)cc3)CC2)CCCCC1 (stereo not shown) [Compound No. 4, 1-3-(1-ethynyl)cyclohexyloxy-2-hydroxy propyl-4-(4-fluorophenyl)piperazine]
- Neuroleptic/psycholeptic activity (in words) (central nervous system): fairly full spectrum characteristic of neuroleptic activity
- Anti-apomorphine (apomorphine; O.A.): 92
- ED50 [2, 6]: 20 mg/kg
- Catalepsy (rat): 20
- LD50 [3]: 800 mg/kg
- Reduction in attempted vomits ([4]; 1 mg/kg subcutaneous): 74%
- Duration of activity (blood-pressure) ([1]; 5 mg/kg intravenous): 20 min
- change in vivo at 5 mg/kg ([1]; Canis lupus familiaris, 5 mg/kg intravenous): -50%
- Cerebral dopamine (cerebral dopamine; at 10 mg/kg): -50%
- Depletion of cerebral mono-amines (in words) (cerebral dopamine; in vivo): depletion of cerebral mono-amines in a manner reminiscent of reserpine

Compound: C#CC1(OCC(O)CN2CCN(c3cccc(C(F)(F)F)c3)CC2)CCCCC1 (stereo not shown) [Compound No. 11]
- Sedative effect (in words) (central nervous system): fairly sedative
- Anti-apomorphine (apomorphine; O.A.): 15
- Activity in apomorphine stereotypes (in words) (apomorphine): extremely active in apomorphine stereotypes
- ED50 [2, 6]: 90 mg/kg
- Catalepsy, result at stated dose (rat; at 40): Inactive
- Cataleptic effect (in words) (rat): slightly cataleptic
- LD50 [3]: 783 mg/kg
- Reduction in attempted vomits ([4]; 10 mg/kg oral): 75%
- Duration of activity (blood-pressure) ([1]; 1.25 mg/kg intravenous): 30 min
- change in vivo at 1.25 mg/kg [1, 5]: -15%
- Hypotensive effect (in words) [1]: slightly hypotensive
- Cerebral dopamine (result in words) (cerebral dopamine): Inactive

Compound: C#CC1(OCC(O)CN2CCN(c3ccccc3OC)CC2)CCCCC1 (stereo not shown) [Compound No. 20, 1-3-(1-ethynyl)cyclohexyloxy-2-hydroxy-propyl-4-(2-methoxy)phenylpiperazine]
- Sedative effect (in words) (central nervous system): non-sedative
- Anti-apomorphine (apomorphine; I.P.): 5
- Activity in apomorphine stereotypes (in words) (apomorphine): active in apomorphine stereotypes
- Barbiturates (potentiation), ED50 [2, 6]: Inactive
- Catalepsy, result at stated dose (rat; at 20): Inactive
- Cataleptic effect (in words) (rat): non-inducive of catalepsy
- LD50 [3]: 60 mg/kg
- Reduction in attempted vomits ([4]; 1 mg/kg oral): 100%
- Reduction in attempted vomits ([4]; 1 mg/kg subcutaneous): 100%
- Inhibition of the emetic effect of apomorphine compared with metoclopramide ([4]; oral administration): superior to that of metoclopramide
- Inhibition of the emetic effect of apomorphine compared with metoclopramide ([4]; subcutaneous injection): equal to that of metoclopramide
- Duration of activity (blood-pressure) ([1]; 1.25 mg/kg intravenous): ≥ 70 min
- change in vivo at 1.25 mg/kg [1, 5]: -35.6%
- Hypotensive effect (in words) [1]: especially hypotensive
- Cerebral dopamine (result in words) (cerebral dopamine): Inactive

Compound: C#CC(C)(CC)OCC(O)CN1CCN(CC(OCC)c2ccccc2)CC1 (stereo not shown) [Compound No. 25, 1-3-(1-methyl-1-ethynyl)propoxy-2-hydroxy propyl-4-(2-ethoxy-2-phenyl)ethylpiperazine]
- Activity of the product (antitussive) (coughing spasms; 5 mg/kg body weight): 41%
- Duration of activity (antitussive) (coughing spasms; 5 mg/kg body weight): > 35 min
- Activity of the product (antitussive) (coughing spasms; 7.5 mg/kg body weight): 49%
- Duration of activity (antitussive) (coughing spasms; 7.5 mg/kg body weight): 62 min
- Activity of the product (antitussive) (coughing spasms; 10 mg/kg body weight): 71%
- Duration of activity (antitussive) (coughing spasms; 10 mg/kg body weight): 80 min
- Dose of pentoxyverine necessary for comparable antitussive effect, relative to compound (coughing spasms): five times greater

Compound: O=C(CCCN1CCC(O)(c2ccc(Cl)cc2)CC1)c1ccc(F)cc1 [Haloperidol, haloperidol, reference compound]
- Anti-apomorphine (apomorphine; subcutaneous): 0.5
- ED50 ([2]; po): 12 mg/kg
- Catalepsy (rat): 1
- LD50 [3]: 125 mg/kg
- Cerebral dopamine (cerebral dopamine; at 10 mg/kg): -30%

Compound: CCN(CC)CCNC(=O)c1cc(Cl)c(N)cc1OC [Metoclopramide, metoclopramide, reference compound]
- Reduction in attempted vomits ([4]; 1 mg/kg subcutaneous): 100%
- Reduction in attempted vomits ([4]; 1.5 mg/kg oral): 100%

Compound: CCN(CC)CCOCCOC(=O)C1(c2ccccc2)CCCC1 [Pentoxyverine, pentoxyverine, reference compound]
- Activity of the product (antitussive) (coughing spasms; 10 mg/kg body weight): 45%
- Duration of activity (antitussive) (coughing spasms; 10 mg/kg body weight): 30 min
- Activity of the product (antitussive) (coughing spasms; 50 mg/kg body weight): 71%
- Duration of activity (antitussive) (coughing spasms; 50 mg/kg body weight): 110 min

Compound: C#CC(C)(C)OCC(O)CN1CCN(c2ccc(F)cc2)CC1 (stereo not shown) [compound 5]
- Duration of activity (blood-pressure) ([1]; 1.25 mg/kg intravenous): ≥ 35 min
- change in vivo at 1.25 mg/kg [1, 5]: -19.5%

Compound: C#CC1(OCC(O)CN2CCN(c3ccc(Cl)cc3)CC2)CCCCC1 (stereo not shown) [compound 8]
- ED50 [2, 6]: 50 mg/kg
- Catalepsy (rat): 30
- LD50 [3]: > 600 mg/kg
- Reduction in attempted vomits ([4]; 5 mg/kg oral): 76%
- Cerebral dopamine (cerebral dopamine; at 80 mg/kg): -78%

Compound: C#CC(C)(CC)OCC(O)CN1CCN(c2ccc(F)cc2)CC1 (stereo not shown) [compound 9]
- ED50 [2, 6]: > 100 mg/kg
- Catalepsy (rat): 60
- LD50 [3]: > 600 mg/kg
- Duration of activity (blood-pressure) ([1]; 1.25 mg/kg intravenous): 20 min
- change in vivo at 1.25 mg/kg [1, 5]: -27%
- Cerebral dopamine (cerebral dopamine; at 60 mg/kg): -50%

Compound: C#CC(C)(CC)OCC(O)CN1CCN(c2ccccc2OC)CC1 (stereo not shown) [compound 18]
- Sedative effect (in words) (central nervous system): non-sedative
- Activity in apomorphine stereotypes (in words) (apomorphine): active in apomorphine stereotypes
- Anti-apomorphine (apomorphine; subcutaneous): 10
- ED50 [2, 6]: > 25 mg/kg
- Catalepsy, result at stated dose (rat; at 40): Inactive
- Cataleptic effect (in words) (rat): non-inducive of catalepsy
- LD50 [3]: > 200 mg/kg
- Cerebral dopamine (cerebral dopamine; at 20 mg/kg): -24%

Compound: C#CC1(OCC(O)CN2CCN(CC(OC)c3ccccc3)CC2)CCCCC1 (stereo not shown) [compound 21]
- Activity of the product (antitussive) (coughing spasms; 10 mg/kg body weight): 54%
- Duration of activity (antitussive) (coughing spasms; 10 mg/kg body weight): 20 min

Compound: C#CC1(OCC(O)CN2CCN(CC(OCC)c3ccccc3)CC2)CCCCC1 (stereo not shown) [compound 22]
- Activity of the product (antitussive) (coughing spasms; 10 mg/kg body weight): 75%
- Duration of activity (antitussive) (coughing spasms; 10 mg/kg body weight): 50 min
- Dose of pentoxyverine necessary for comparable antitussive effect, relative to compound (coughing spasms): five times greater

Compound: C#CC(C)(C)OCC(O)CN1CCN(CC(OC)c2ccccc2)CC1 (stereo not shown) [compound 23]
- Activity of the product (antitussive) (coughing spasms; 10 mg/kg body weight): 31%
- Duration of activity (antitussive) (coughing spasms; 10 mg/kg body weight): 25 min

Compound: C[C@](N)(Cc1ccc(O)c(O)c1)C(=O)O [αmethyldopa, reference compound]
- Duration of activity (blood-pressure) ([1]; 1.25 mg/kg intravenous): 95 min
- change in vivo at 1.25 mg/kg [1, 5]: -8.7%
